Reference: patent US20260345582A1, “PRODRUG FOR ANTI-AGING RELATED DISEASES AND USE METHOD THEREOF” (Beijing SunCell Bio-Medical Co., Ltd., priority 2022, published 2026)
Values belong to the compound of their own block, whether it stands above or below them.

Assays:
[1] = liver microsomal metabolic stability, human; conditions: Fu and RB assumed to be 1
Experimental: (§1) Hepatic Microsomal Metabolic Stability
(§2) A13bGa1 was co-incubated with the mouse, rat, canine, monkey and human […] and the incubation medium at a final drug concentration of 1 μM in the incubation system for 60 minutes. Samples were taken and analyzed at time points 0, 15, 30, 45 and 60 minutes during the incubation. The reaction was terminated by adding an amount of acetonitrile solution containing the internal standard. […] The residual percentage, half-life, intrinsic clearance, amplified clearance, hepatic clearance and hepatic extraction ratio were determined. The entire experiment was performed in triplicate. All data calculations were performed by Microsoft Excel software. Peak areas were detected by extracting the ionic spectrum. The in vitro half-life (t1/2) of the parent compound was detected by fitting the natural logarithm of the percentage elimination of the parent compound linearly to time.
(§3) The in vitro intrinsic clearance (in μL/min/mg protein) was calculated using the following equation: in vitro CLint=kV/N
(§4) The amplified clearance (in mL/min/kg) was calculated using the following equation: Amplified CLint=kV/N×the amplification factor
(§5) The hepatic clearance (in mL/min/kg) was calculated using the following equation: The predicted hepatic CLH=(Q×Fu/RB×the amplified CLint)/(Q+Fu/RB×the amplified CLint) • V=the incubation volume per well (0.2 mL); • N=the total amount of protein (mg) • Q=the hepatic blood flow (mL/min/kg) • Fu=the plasma free rate (assumed to be 1) • RB=the whole blood partition coefficient (assumed to be 1)
(§6) The hepatic uptake rate was calculated using the following equation:
(§7) The hepatic extraction ratio (ER)=(the predicted hepatic CLH)/Q

[2] = liver microsomal metabolic stability, monkey; conditions: Fu and RB assumed to be 1
Experimental: as §1, §2, §3, §4, §5, §6, §7

[3] = liver microsomal metabolic stability, mouse; conditions: Fu and RB assumed to be 1
Experimental: as §1, §2, §3, §4, §5, §6, §7

[4] = liver microsomal metabolic stability, canine; conditions: canine; Fu and RB assumed to be 1
Experimental: as §1, §2, §3, §4, §5, §6, §7

[5] = liver microsomal metabolic stability, rat; conditions: Fu and RB assumed to be 1
Experimental: as §1, §2, §3, §4, §5, §6, §7

[6] = test system: A549 cells (human non-small cell lung cancer cell), induced senescent with Cisplatin; test: in vitro killing of induced senescent A549 cells (CCK-8); assay type: cell-based; conditions: induced senescent A549 cell model, FIG. 1A
From the text: A. The killing results of some selected compounds in the in vitro compound library screening on the induced senescent A549 cell model. Wherein, MZ-1, dBET6, ARV-825, I-BET726, I-BET151, and INCB057643 are all BET inhibitors; A1331852 and A1155463 are novel Bcl-xL inhibitors; Dasatinib, Quercetin, Fisetin, Curcumin are the familiar active drugs or natural products.
B. Comparison of the killing effects of three Bcl-xL inhibitors on the induced senescent A549 cell model. A549 represents the normal uninduced A549 cell group; and A549-CDDP represents the senescent A549 cell group induced with Cisplatin (CDDP) in vitro.
(§8) Induction of the Cellular Senescence

senescent A549 cells = test: cell killing activity assay, senescent A549 cells (Example 7); assay type: cell-based, human; conditions: for selective killing of the senescent cells: A549-induced senescence model, three days, CCK-8, FIG. 7
Experimental: as §8
(§9) Cell Killing Activity Assay
(§10) Preparation of the cell plates: The non-senescent, and the induced senescent HEF cells and A549 cells were taken respectively, digested with trypsin, and centrifuged at 1000 rmp for 5 minutes. The supernatants were removed, and the cells were resuspended in fresh DMEM medium containing 10% foetal bovine serum for counting. The cell density was adjusted so that the density of the non-senescent cells was at 4000 cells/100 μL and the density of the senescent cells was at 7000 cells/100 μL. The cell suspension was added to the 96-well transparent cell culture plates at 100 μL per well. Note that the edge wells of the 96-well plate were not used for the test wells, and 300 μL PBS is added separately to reduce the medium evaporation. The cell-spread 96-well plates were put back into the incubator at 37 °C for the overnight incubation until the cells adhered to the wall.
Formulation of the drug concentration gradients: After the cells adhered to the wall on the second day, the small molecule compounds (d-12, d-11, and d-4) to be tested for activity are ready to be added. […] 3 parallel replicate wells were set up for each test drug concentration. The 96-well plate was put back into the incubator at 37 °C, and the cell survival was tested after three days.
Detection of the cell survival after the drug treatment using the CCK-8 method: Three days after the addition of the drug, the well plate was removed, the supernatant was discarded, and 100 μL of the pre-prepared CCK-8 working solution was added to each well. The CCK-8 working solution was obtained by diluting the CCK8 stock solution (C0041, Beyotime) with the serum-free DMEM medium in 10-fold volume. The 96-well plate added with the CCK-8 working solution was put back to the incubator at 37 °C and incubated for 0.5-2 hours. The plate was taken out to determine the absorbance value (OD value) of each well at the wavelength of 450 nm. The cell viability in each experimental group was calculated. […]

non-senescent A549 cells = test: cell killing activity assay, non-senescent A549 cells (Example 7); assay type: cell-based, human; conditions: non-senescent A549, highest concentration (25 μM)
Experimental: as §8, §9
as §10, with “Note that the edge wells of the 96-well plate were not used for the test wells, and 300 μL PBS is added separately to reduce the medium evaporation. The cell-spread 96-well plates were put back into the incubator at 37 °C for the overnight incubation until the cells adhered to the wall.” left out
(§11) Formulation of the drug concentration gradients: After the cells adhered to the wall on the second day, the small molecule compounds (d-12, d-11, and d-4) to be tested for activity are ready to be added. […]
(§12) Detection of the cell survival after the drug treatment using the CCK-8 method: Three days after the addition of the drug, the well plate was removed, the supernatant was discarded, and 100 μL of the pre-prepared CCK-8 working solution was added to each well. […] The plate was taken out to determine the absorbance value (OD value) of each well at the wavelength of 450 nm. The cell viability in each experimental group was calculated. […]

non-senescent HEF cells = test: cell killing activity assay, non-senescent HEF cells (Example 7); assay type: cell-based, human; conditions: highest concentration (25 μM)
Experimental: as §8, §9
as §10, with “Note that the edge wells of the 96-well plate were not used for the test wells, and 300 μL PBS is added separately to reduce the medium evaporation. The cell-spread 96-well plates were put back into the incubator at 37 °C for the overnight incubation until the cells adhered to the wall.” left out
as §11, §12

senescent HEF cells = test: cell killing activity assay, senescent HEF cells (Example 7); assay type: cell-based, human; conditions: HEF-induced senescence model, three days, CCK-8, FIG. 7
Experimental: as §8, §9
as §10, with “Note that the edge wells of the 96-well plate were not used for the test wells, and 300 μL PBS is added separately to reduce the medium evaporation. The cell-spread 96-well plates were put back into the incubator at 37 °C for the overnight incubation until the cells adhered to the wall.” left out
as §11, §12

[7] = test system: senescent cells (A549 and HEF); test: cell killing activity assay, senescent A549 and HEF cell models (Example 7); assay type: cell-based, human; conditions: FIG. 7
Experimental: as §8, §9
as §10, with “Note that the edge wells of the 96-well plate were not used for the test wells, and 300 μL PBS is added separately to reduce the medium evaporation. The cell-spread 96-well plates were put back into the incubator at 37 °C for the overnight incubation until the cells adhered to the wall.” left out
as §11, §12

- The predicted intrinsic hepatic clearance Clint [1]: 1.21 L/h/kg
- The predicted intrinsic hepatic clearance Clint [2]: 2.525 L/h/kg
- The predicted intrinsic hepatic clearance Clint [3]: 5.269 L/h/kg
- The predicted intrinsic hepatic clearance Clint [4]: 1.826 L/h/kg
- The predicted intrinsic hepatic clearance Clint [5]: 3.14 L/h/kg
SMILES: O=c1ccc2ccc(O)cc2o1 [7-hydroxycoumarin, reference compound]

SMILES: Cc1sc2c(c1C)C(c1ccc(Cl)cc1)=N[C@@H](CC(=O)Nc1ccc(OCCOCCOCCOCCNc3cccc4c3C(=O)N(C3CCC(=O)NC3=O)C4=O)cc1)c1nnc(C)n1-2 (stereo partly shown) [ARV825]
- senescent cell killing activity and selectivity, compound screening [6]: better in vitro killing activity

SMILES: CN(C)CC#Cc1ccc(OCCCc2sc(N3CCc4cccc(C(=O)Nc5nc6ccccc6s5)c4C3)nc2C(=O)O)c(F)c1 [Compound A1155463]
- senescent cell killing activity and selectivity, compound screening [6]: good senescent cell killing activity and selectivity in vitro

SMILES: Cc1ncsc1-c1ccc(CNC(=O)[C@@H]2C[C@@H](O)CN2C(=O)[C@@H](NC(=O)COCCOCCOCCNC(=O)C[C@@H]2N=C(c3ccc(Cl)cc3)c3c(sc(C)c3C)-n3c(C)nnc32)C(C)(C)C)cc1 [MZ1]
- senescent cell killing activity and selectivity, compound screening [6]: better in vitro killing activity

SMILES: CC(=O)OC[C@H]1O[C@@H](Oc2ccc(C(Cc3cn(CCCN4CCOCC4)nn3)OC(=O)c3nc(N4CCc5cccc(C(=O)Nc6nc7ccccc7s6)c5C4)ccc3-c3cnn(CC45CC6CC(CC(C6)C4)C5)c3C)cc2[N+](=O)[O-])[C@H](OC(C)=O)[C@@H](OC(C)=O)[C@H]1OC(C)=O (stereo partly drawn) [d-11]
- selective killing of the senescent cells (senescent A549 cells): selective killing of the senescent cells
- killing of the non-senescent cells (non-senescent A549 cells): none of the three molecules killed the non-senescent cells
- killing of the non-senescent cells (non-senescent HEF cells): none of the three molecules killed the non-senescent cells
- selective killing of the senescent cells (senescent HEF cells): selective killing of the senescent cells

SMILES: Cc1c(-c2ccc(N3CCc4cccc(C(=O)Nc5nc6ccccc6s5)c4C3)nc2C(=O)OC(Cc2cn(CCCN3CCOCC3)nn2)c2ccc(O[C@@H]3O[C@H](CO)[C@H](O)[C@H](O)[C@H]3O)c([N+](=O)[O-])c2)cnn1CC12CC3CC(CC(C3)C1)C2 (stereo partly drawn) [d-12]
- selective killing of the senescent cells (senescent A549 cells): selective killing of the senescent cells
- IC50 (senescent A549 cells; Homo sapiens, 72 h, Cisplatin-induced senescent A549, three days, CCK-8): ~6.9 µM
- relative activity in killing the senescent cells among the three molecules [7]: relatively more active in killing the senescent cells
- killing of the non-senescent cells (non-senescent A549 cells): none of the three molecules killed the non-senescent cells
- killing of the non-senescent cells (non-senescent HEF cells): none of the three molecules killed the non-senescent cells
- selective killing of the senescent cells (senescent HEF cells): selective killing of the senescent cells

SMILES: Cc1sc2c(c1C)C(c1ccc(Cl)cc1)=N[C@@H](CC(=O)NCCCCCCCCNC(=O)COc1cccc3c1C(=O)N(C1CCC(=O)NC1=O)C3=O)c1nnc(C)n1-2 (stereo partly shown) [dBET6]
- senescent cell killing activity and selectivity, compound screening [6]: better in vitro killing activity
